Where two headings read alike, the source gives them in different places.
Assays:
[1] = target: HCV viral helicase, NS3h (Hepatitis C virus genotype 1a, UniProt P27958); type: biochemical
[2] = tested on: MCF10A cells; conditions: human
[3] = target: HCV NS3h (Hepatitis C virus genotype 1a, UniProt P27958); type: biochemical
[4] = target: T1, SARS coronavirus helicase nsP13 (Severe acute respiratory syndrome coronavirus, UniProt P0C6X7); type: biochemical
[5] = target: T1, SARS coronavirus helicase nsP13; assay: biochemical; conditions: for inhibition at 10 µM: read-out: inhibition of the ATPase activity of nsP13
[6] = tested on: MCF10A cells; assay: Cytotoxicity: growth of normal breast epithelial MCF10A cells; conditions: 2 μM, counted every 24h for 3 days

Sequence of HCV viral helicase, NS3h (P27958 1193-1657): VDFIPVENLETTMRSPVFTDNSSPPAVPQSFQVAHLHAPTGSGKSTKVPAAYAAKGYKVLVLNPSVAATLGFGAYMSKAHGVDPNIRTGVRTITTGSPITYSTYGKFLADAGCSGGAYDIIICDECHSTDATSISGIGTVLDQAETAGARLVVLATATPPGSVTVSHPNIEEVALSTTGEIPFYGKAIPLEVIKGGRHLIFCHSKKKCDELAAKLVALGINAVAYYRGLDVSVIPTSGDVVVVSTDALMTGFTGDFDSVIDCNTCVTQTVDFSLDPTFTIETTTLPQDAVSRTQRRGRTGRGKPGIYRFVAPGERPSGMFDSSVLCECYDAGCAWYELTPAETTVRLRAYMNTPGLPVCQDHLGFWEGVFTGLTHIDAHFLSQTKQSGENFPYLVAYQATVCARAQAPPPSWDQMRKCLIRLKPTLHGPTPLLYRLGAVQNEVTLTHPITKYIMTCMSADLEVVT
Sequence of HCV NS3h (P27958 1193-1657): as above

O=c1c(O)c(-c2cc(O)c(O)c(O)c2)oc2cc(O)cc(O)c12 [No. 6, myricetin]
inhibition of the DNA unwinding activity of HCV viral helicase [1]: did not suppress the helicase activity of HCV virus | effect on the growth of MCF10A cells (viable cell number) [2]: did not affect the growth of MCF10A cells | suppression of the ATPase activity of the HCV viral helicase [3]: did not seem to suppress the ATPase activity of HCV helicase protein | inhibition of the dsDNA-unwinding activity of SARS helicase, nsP13 [4]: not inhibition of helicase activity

O=c1cc(-c2ccc(O)cc2)oc2cc(O)c(O)c(O)c12 [No. 8, scutellarein]
IC50 [5]: 0.86 ± 0.48 µM | inhibition at 10 µM [5]: > 90% | effect on the growth of MCF10A cells (viable cell number) [6]: did not affect the growth of MCF10A cells

O=c1cc(-c2ccc(O)c(-c3c(O)cc(O)c4c(=O)cc(-c5ccc(O)cc5)oc34)c2)oc2cc(O)cc(O)c12 [No. 18, amentoflavone]
inhibition at 10 µM [5]: ~20%

CC1(C)CC[C@]2(C)CC=C3[C@]4(C)CC[C@H]5C(C)(C)[C@@H](O)CC[C@]5(C)[C@H]4CC[C@@]3(C)[C@@H]2C1 [No. 58, taraxerol]
inhibition at 10 µM [5]: ~20%

Diosmetin-7-O-Glc-Xyl [No. 35]
inhibition of the ATPase activity of nsP13 ([5]; 10 µM): around 20%
